Source: PubChem BioAssay (NCI)
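All cell lines were grown in 96-well plates and treated with compound for 48 hours. GI50 is the concentration that inhibits growth by half. TGI is the concentration that stops growth completely.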

What was measured:
Assay in all cases: growth of human tumour cells (NCI), 48 h
M14 melanoma = system: M14 melanoma
SNB-19 CNS = system: SNB-19 CNS
K-562 leukemia = system: K-562 leukemia
MDA-MB-435 = system: MDA-MB-435
NCI/ADR-RES ovarian = system: NCI/ADR-RES ovarian
SK-MEL-2 melanoma = system: SK-MEL-2 melanoma
TK-10 renal = system: TK-10 renal
HT29 colon = system: HT29 colon
MDA-MB-231 breast = system: MDA-MB-231 breast
SK-MEL-5 melanoma = system: SK-MEL-5 melanoma

Structure (SMILES)	GI50 (M14 melanoma) [µM]	TGI (M14 melanoma) [µM]	GI50 (SNB-19 CNS) [µM]	TGI (SNB-19 CNS) [µM]	GI50 (K-562 leukemia) [µM]	TGI (K-562 leukemia) [µM]	GI50 (MDA-MB-435) [µM]	TGI (MDA-MB-435) [µM]	GI50 (NCI/ADR-RES ovarian) [µM]	TGI (NCI/ADR-RES ovarian) [µM]	GI50 (SK-MEL-2 melanoma) [µM]	TGI (SK-MEL-2 melanoma) [µM]	GI50 (TK-10 renal) [µM]	TGI (TK-10 renal) [µM]	GI50 (HT29 colon) [µM]	TGI (HT29 colon) [µM]	GI50 (MDA-MB-231 breast) [µM]	TGI (MDA-MB-231 breast) [µM]	GI50 (SK-MEL-5 melanoma) [µM]	TGI (SK-MEL-5 melanoma) [µM]
COc1ccc(C(=O)COc2ccc(/C=C3\COc4ccc(OC)cc4C3=O)cc2)cc1	39.7	> 100	29.8	> 100	4.09	61.2	6.46	78.5	12	32.3	37.5	> 100	19.1	48.7	22.2	> 100	30	92.5	24.6	> 100
C/C(N=NC(=S)N(C)C)=C1\C=CC=CN1O	–	> 100	–	> 100	–	> 100	–	> 100	–	21.1	–	> 56.2	–	> 100	–	> 100	–	> 100	–	> 100
C=C1CCC(CC[C@@H]2CC[C@]3(OC2)O[C@@]2(O)CC[C@]3(C)OC2(C)C)C(C)(C)[C@H]1C/C=C1/C(=O)OC[C@@H]1O (stereo partly specified)	–	12.3	–	8.88	–	2.38	–	5.82	–	6.92	–	1.36	–	11.5	–	5.01	–	3.72	–	1.72
Br[C](Br)(Br)[Hg][c]1ccccc1	5.23	12.2	16.6	30.6	0.275	5.02	16.1	30	18.3	42.2	17.8	32	17.5	31.4	11.1	25.5	18.1	41.3	11.7	24.8
O=S(=O)(Nc1cc(Sc2cccc3cccnc23)c(O)c2ccccc12)c1ccccc1	1.12	9.2	1.98	21.4	0.929	16.5	2.01	12.6	0.931	11	2.48	13.4	5.08	18.3	2.42	14.4	0.47	6.01	1.36	3.05
CCCCON(OC(=O)c1ccc2ccc3cccc4ccc1c2c34)C(C)=O	22.7	55.3	34.3	> 100	20.9	50.2	22.3	50.4	21.9	60.7	23.9	68.9	30.5	87.9	25	74.9	18.9	40.2	16.9	32.5
O=C(O)C1C(Br)(c2ccccc2)C1(Br)c1ccccc1 (stereo unspecified)	–	> 100	–	> 100	–	> 100	–	> 100	–	> 100	–	80.2	–	> 100	–	59	–	> 100	–	88.8
CC(=O)C(=CN1CCN(C(=O)c2ccco2)C1=S)C(C)=O	4.03	15.4	30.1	63.6	38.4	> 100	12.6	49	23.2	56.6	3.34	8.52	4.19	14.3	17.1	53.8	2.62	6.96	16.6	31.5
ClCC[N+]12CC[N+](CCCl)(CC1)C2	–	> 100	–	> 100	–	> 100	–	> 100	–	> 100	–	> 100	–	> 100	–	> 100	–	> 100	–	> 100
C[C@H](O)C(=O)N1CCC(CCn2c(Sc3cc4c(cc3Br)OCO4)nc3c(N)ncnc32)CC1	0.965	> 100	3.7	> 100	0.472	> 100	0.577	> 100	13.9	> 100	4.63	> 100	1.3	> 100	0.432	> 100	1.46	31.9	2.95	> 100
O=c1c2ccccc2c(=O)c2c1[nH]c1c(-c3ccccc3)c(-c3ccccc3)c(=O)c12	2.41	5.63	3.26	11.8	3.68	> 100	3.24	9.42	3.76	21.7	2.84	15.6	4.84	52.3	4.29	> 100	4.97	43	2.05	4.03
COc1cc(/C=C/c2ccc(OC)c(OC)c2)cc(OC)c1	–	67.9	–	> 100	–	> 100	–	> 100	–	60	–	> 100	–	> 100	–	94.4	–	52	–	41.1
Clc1ccc(C=Nc2ccc3c(c2)Cc2ccccc2-3)c(Cl)c1	–	> 100	–	> 100	–	> 100	–	> 100	–	> 100	–	> 100	–	> 100	–	> 100	–	> 100	–	> 100
CC1=C[C@H]2c3c(c(O)c(O)c4oc(-c5ccccc5)cc(=O)c34)[C@H](c3cc(O)c(O)c4oc(-c5ccccc5)cc(=O)c34)[C@H]2C(C)(C)C1	0.887	4.88	0.557	17	0.294	> 75	0.435	5.74	3.55	25.3	1.77	9.61	1.57	31	0.888	> 75	2.71	17.7	0.974	2.16
COc1cc2[nH]c(C(=O)c3cc(OC)c(OC)c(OC)c3)c(N)c2cc1C#CC1CC1	1.93	> 100	5.85	> 100	1.94	> 100	0.332	1.17	2.3	14.4	5.14	> 100	40	> 100	3.38	28	3.9	> 100	1.33	22.4
Cc1ccc2[nH]c(O)c(N=Nc3ccc(S(N)(=O)=O)cc3)c2c1	> 25	> 25	> 19.1	> 25	13.8	> 25	15.5	> 25	18.2	> 25	> 25	> 25	10.1	> 25	12.1	> 25	> 25	> 25	11	> 25
CC1=C(C(=O)Nc2ccc(F)c(Cl)c2)C(c2cccc(O)c2)NC(=O)N1 (stereo unspecified)	71.4	> 100	> 100	> 100	73.5	> 100	59.7	> 100	> 100	> 100	29.5	> 100	> 100	> 100	81.6	> 100	46.2	> 100	45.1	> 100
C#Cc1c(I)n(C2OC(CO[Si](C)(C)C(C)(C)C)C3OC(C)(C)OC32)c(=O)[nH]c1=O (stereo unspecified)	16.3	33.3	24.1	78.8	2.08	5.37	15	31	23.5	59.1	5.35	26.1	11.2	26.5	19.2	52.2	5.24	19.9	13.1	27.1
CC(=O)N[C@H]1CSSC[C@@H](C(N)=O)NC(=O)[C@H](C(C)C)NC(=O)[C@H](C)NC(=O)[C@H](Cc2cnc[nH]2)NC1=O	> 100	> 100	> 100	> 100	> 100	> 100	> 100	> 100	> 100	> 100	> 100	> 100	> 100	> 100	> 100	> 100	> 100	> 100	> 100	> 100
O=C(/C=C\c1ccc(NCc2ccc(C(=O)O)cc2)cc1)CCl	15	35.3	15.3	29.1	3.36	14	15.8	31.9	17.8	39.6	15	30.5	–	–	18.9	37.8	12.7	27	17.2	34.5
COc1ccc(CC2NCCc3cc(OC)c(OC)cc32)cc1Br (stereo unspecified)	–	31	–	> 100	–	45.6	–	60	–	> 100	–	61.6	–	> 89.8	–	57.9	–	57.3	–	19.9
CC(C)(C[C@H]1CN(S(=O)(=O)c2cccc(C(F)(F)F)c2)c2cc(-c3cc(F)cc(OC(F)F)c3)ccc2O1)C(=O)O	4.59	17.5	5.92	20.7	4.83	30.3	2.44	7.58	5.07	30.9	4.8	18.2	9.07	27.6	4.01	15.6	13.3	34	3.56	14.9
COc1cc(C(=O)c2cc(C)c3[nH]c4ccc(C)cc4c3c2C)cc(OC)c1OC	< 0.01	> 100	< 0.01	> 100	< 0.01	> 100	< 0.01	0.136	< 0.01	> 32.9	–	> 100	3.37	> 100	< 0.01	1.62	< 0.01	–	< 0.01	< 0.0146
CCSc1nc(SCC)c2cn[nH]c2n1	> 100	> 100	46.8	> 100	67.1	> 100	49.6	> 100	> 100	> 100	61.5	> 100	58.3	> 100	62.9	> 100	23.2	> 100	18	41.8
CCOc1cc(C(C)(C)C)ccc1C1=N[C@@](C)(c2ccc(Cl)cc2)[C@@](C)(c2ccc(Cl)cc2)N1C(=O)N1CCN(CCCS(C)(=O)=O)CC1	3.6	> 100	5.12	17.8	3.71	> 100	5.21	19.4	4.97	18.9	9.14	30	10.3	46.9	2.96	9.28	3.41	12.9	1.63	3.21
CC/C=C\C[C@H]1C/C=C2/C(=O)C=C[C@@H]2C/C=C\CCCC(=O)O1	0.599	3.7	2.09	11.7	0.353	> 54.5	0.37	4.08	0.405	7.32	1.86	4.87	1.8	5.03	0.376	1.27	2.76	13.2	1.38	2.74
CC1(C)[C@@H](OC(N)=O)[C@H]2O[C@H]2[C@]2(C=O)[C@H]3CC[C@]4(C)[C@@H](c5ccc(=O)oc5)[C@@H](Cl)C[C@]4(O)C3=CC[C@@H]12	0.00639	0.0177	0.00796	0.0219	0.00698	0.0253	0.00704	0.0187	0.00589	0.0142	0.02	0.0692	0.00551	0.0123	0.00581	0.0125	0.0109	0.0556	0.00459	0.00887
